Results: patent US20130252950A1, “TARGETING MTOR SUBSTRATES IN TREATING PROLIFERATIVE DISEASES” (President and Fellows of Harvard College, priority 2010, published 2013)

What was measured:
[1] = test system: Grb10 S501/S503 phosphorylation in wild type (WT) MEFs; test: Immunoblot of Grb10 phosphorylation after insulin or serum stimulation; format: cell-based, mouse; settings: serum-starved WT MEFs, preincubated two hours (rapamycin 20 nM, AZD6244 5 μM), insulin 100 nM or serum 10% 15 min
Protocol: (§1) FIG. 2. Phosphorylation of Grb10 at S501/S503 is sensitive to rapamycin inhibition. (A) Identification of a doubly-phosphorylated rapamycin-sensitive Grb10 peptide (MNILSS*QS*[…] , SEQ ID NO: 2, * indicates phosphorylation sites) corresponding to S501/S503. (B) Evolutionary conservation of Grb10 S501/S503 among vertebrate species. […] TSC2−/− cells were starved for serum and treated with 20 nM rapamycin for the indicated times. Sequences, from top to bottom: SEQ ID NO: 1723 to SEQ ID NO: 1727, respectively. (D) Phosphorylation of Grb10 at S501/501 is sensitive to amino acids withdrawal. TSC2−/− cells were starved in DMEM overnight and then transferred to D-PBS for the indicated times. (E) Phosphorylation of Grb10 at S501/S503 is not affected by the pan-kinase inhibitor, staurosporine. TSC2−/− cells were starved for serum and treated with either 100 nM staurosporine or Ku-0063794 at the indicated concentrations for two hours. (F) Grb10 phosphorylation is increased upon growth factor stimulation. Wild type (WT) mouse embryonic fibroblasts (MEFs) were starved for serum overnight and then were stimulated with insulin (100 nM) or serum (10%) for 15 min. The cells were preincubated with the indicated compounds for two hours. […] Rapamycin (rapa) was used at 20 nM. (G) Grb10 phosphorylation at S501/S503 is sensitive to various mTOR kinase inhibitors. […]

[2] = test system: ERK in wild type (WT) MEFs; test: Immunoblot of ERK activity after growth factor stimulation; format: cell-based, mouse; settings: serum-starved WT MEFs, AZD6244 5 μM two hours, insulin or serum 15 min
Protocol: as §1

wild-type MEFs = test: Ku-0063794 screen: SILAC quantitative phosphoproteomics in rapamycin-inhibited, insulin-stimulated cells
[3] = test system: Grb10 S501/S503 phosphorylation in TSC2−/− cells; test: Immunoblot of Grb10 S501/S503 phosphorylation with phospho-specific antibody; format: cell-based, mouse; settings: serum-starved TSC2−/− cells, two hours; rapamycin 20 nM, staurosporine 100 nM, LY294002 20 μM, BEZ235 500 nM, torin 100 nM, pp 242 1 μM, Ku-0063794 at indicated concentrations
Protocol: FIG. 2. Phosphorylation of Grb10 at S501/S503 is sensitive to rapamycin inhibition. (A) Identification of a doubly-phosphorylated rapamycin-sensitive Grb10 peptide (MNILSS*QS*[…] , SEQ ID NO: 2, * indicates phosphorylation sites) corresponding to S501/S503. (B) Evolutionary conservation of Grb10 S501/S503 among vertebrate species. […] TSC2−/− cells were starved for serum and treated with 20 nM rapamycin for the indicated times. Sequences, from top to bottom: SEQ ID NO: 1723 to SEQ ID NO: 1727, respectively. (D) Phosphorylation of Grb10 at S501/501 is sensitive to amino acids withdrawal. TSC2−/− cells were starved in DMEM overnight and then transferred to D-PBS for the indicated times. (E) Phosphorylation of Grb10 at S501/S503 is not affected by the pan-kinase inhibitor, staurosporine. TSC2−/− cells were starved for serum and treated with either 100 nM staurosporine or Ku-0063794 at the indicated concentrations for two hours. (F) Grb10 phosphorylation is increased upon growth factor stimulation. Wild type (WT) mouse embryonic fibroblasts (MEFs) were starved for serum overnight and then were stimulated with insulin (100 nM) or serum (10%) for 15 min. The cells were preincubated with the indicated compounds for two hours. […] Rapamycin (rapa) was used at 20 nM. (G) Grb10 phosphorylation at S501/S503 is sensitive to various mTOR kinase inhibitors. TSC2−/− cells were serum-starved and treated with the indicated compounds for two hours. The concentrations of the compounds were rapamycin 20 nM, LY (LY294002) 20 μM, BEZ235 (NVP-BEZ235) 500 nM, torin 100 nM, and pp 242 1 μM.
We developed a phosphospecific antibody (FIGS. 9A and 9B) to further characterize these two Grb10 phosphorylation sites. […] The dephosphorylation kinetics correlated well with that of S6K.
We further investigated the effects of growth factor stimulation and rapamycin-mediated inhibition on Grb10 phosphorylation in other cell types. Wild-type MEFs were serum-starved and then stimulated with either insulin or 10% serum, both of which led to a robust increase in Grb10 phosphorylation (FIG. 2F). […] It was previously reported that Grb10 S503 (S476 in human Grb10 isoform 3) was phosphorylated by ERK1/2 in vitro (13).

Akt phosphorylation = test: Immunoblot of insulin-induced Akt phosphorylation; settings: FIG. 5C
Protocol: For the Ku-screen, wild-type MEFs were grown in light and heavy SILAC media and starved overnight for serum. […] Both the light and heavy cell were subsequently stimulated with insulin for 15 minutes and samples were pooled and analyzed by quantitative mass spectrometry.
Samples were boiled for 5 min and subject to electrophoresis using the standard SDS-PAGE method. Proteins were then transferred to a nitrocellulose membrane (Whatman). The membranes were blocked with a TBST buffer (25 mM Tris-HCl, pH 7.5, 150 mM NaCl, 0.05% Tween 20) containing 3% nonfat dried milk, and probed overnight with primary antibodies at 4° C. and for 1 h at RT with peroxidase-conjugated secondary antibodies. Blots were developed using enhanced chemiluminescence, exposed on autoradiograph film and developed using standard methods.

[4] = test system: Grb10 protein in TSC1−/− cells; test: Immunoblot of Grb10 protein level in TSC1−/− cells; format: cell-based, mouse
Protocol: (§2) FIG. 9. Phosphorylation of Grb10 at S501/S503 regulates its stability. […] Preincubation of the antibody with the […] completely eliminated the immunoreactivity. (B) Further validation of the phospho-specific antibody raised against the Grb10 S501/S503 sites. Grb10 WT, S501A/S503A (AA) and S501D/S503D (DD) were transfected into HEK239T cells and were probed with the antibody. Note that this antibody detected wild type (WT) Grb10, but neither of the mutant proteins. (C) Treatment of TSC2−/− cells with various mTOR kinase inhibitors led to Grb10 degradation. […] (E) Grb10 is highly overexpressed in TSC1−/− cells compared with their wild-type counterparts. (F) rapamycin treatment of TSC2−/− cells stably expressing wild type (WT) Grb10 led to lower levels of both endogenous and exogenous Grb10.
(§3) In addition, long-term treatment with mTOR kinase inhibitors, including LY-294002, NVP-BEZ235, torin and pp 242 all led to reduced Grb10 protein expression (FIG. 9C). Similar results were obtained in TSC1−/− MEFs (FIG. 9D). In contrast, we found Grb10 was highly overexpressed in TSC2−/− and TSC1−/− MEFs compared with their wild-type counterparts (FIGS. 3E and 9E), correlating with elevated mTORC1 activity in these cells.

[5] = test system: Grb10 protein in TSC2−/− cells; test: Immunoblot of Grb10 protein level after long-term treatment; format: cell-based, mouse; settings: TSC2−/− cells, endogenous Grb10
Description: FIG. 3. mTOR-mediated Grb10 phosphorylation is important for Grb10 stability. (A) Grb10 interacts with raptor, but not rictor. HA-tagged Grb10 was co-transfected with Myc-raptor or Myc-rictor in HEK293T cells. Cells were lysed in lysis buffer A, and the lysates were subjected to immunoprecipitation using anti-HA antibody conjugated beads. Raptor and rictor were probed with an antibody against the Myc-tag. (B) Grb10 is phosphorylated by mTOR in vitro. […] Phosphorylation of Grb10 at S501/S503 was detected by using the phospho-specific antibody against these two sites. (C) Long-term rapamycin treatment leads to Grb10 degradation in TSC2−/− cells. Note that Grb10 protein expression levels inversely correlated with Akt activity. Grb10 is highly overexpressed in TSC2−/− cells. mRNA level was determined using quantitative RT-PCR based on three biological replicate experiments. (D) Knockdown of raptor in TSC2−/− cells decreased Grb10 protein level. Cells were starved overnight and the lysates were probed with the antibodies indicated. (E) Grb10 is highly overexpressed in TSC2−/− cells. (F) S501A/S503A mutant is unstable compared with the wild-type or the S501D/S503D mutant. The same amount of DNA was transfected into HEK293T cells. […] Endogenous Grb10 was detected using an antibody that preferentially recognizes mouse Grb10 whereas the Grb10 DD mutant (of human origin) was detected using an anti-HA antibody.
as §2
as §3, with “cells. […]” for “cells.”

[6] = test system: phospho-mTOR S2481 in TSC2−/− cells; test: Immunoblot of mTOR S2481 phosphorylation; format: cell-based, mouse; settings: starved TSC2−/− cells; 20 nM rapamycin acute treatment; pp 242 two hours
[7] = test system: rpS6 phosphorylation in TSC2−/− cells; test: Immunoblot of rpS6 phosphorylation (S6K activity); format: cell-based, mouse; settings: serum-starved TSC2−/− cells, 100 nM staurosporine, two hours
Protocol: as §1

[8] = target: T1, Myc-tagged rictor (pRK5-Myc-Rictor) (UniProt Q6R327 1-1708); test: co-immunoprecipitation with anti-HA beads from co-transfected HEK293T cells, anti-Myc blot
T1 construct: Co-overexpressed with HA-Grb10 in HEK293T cells; not shown: Myc tag
T1 sequence (Q6R327 whole entry): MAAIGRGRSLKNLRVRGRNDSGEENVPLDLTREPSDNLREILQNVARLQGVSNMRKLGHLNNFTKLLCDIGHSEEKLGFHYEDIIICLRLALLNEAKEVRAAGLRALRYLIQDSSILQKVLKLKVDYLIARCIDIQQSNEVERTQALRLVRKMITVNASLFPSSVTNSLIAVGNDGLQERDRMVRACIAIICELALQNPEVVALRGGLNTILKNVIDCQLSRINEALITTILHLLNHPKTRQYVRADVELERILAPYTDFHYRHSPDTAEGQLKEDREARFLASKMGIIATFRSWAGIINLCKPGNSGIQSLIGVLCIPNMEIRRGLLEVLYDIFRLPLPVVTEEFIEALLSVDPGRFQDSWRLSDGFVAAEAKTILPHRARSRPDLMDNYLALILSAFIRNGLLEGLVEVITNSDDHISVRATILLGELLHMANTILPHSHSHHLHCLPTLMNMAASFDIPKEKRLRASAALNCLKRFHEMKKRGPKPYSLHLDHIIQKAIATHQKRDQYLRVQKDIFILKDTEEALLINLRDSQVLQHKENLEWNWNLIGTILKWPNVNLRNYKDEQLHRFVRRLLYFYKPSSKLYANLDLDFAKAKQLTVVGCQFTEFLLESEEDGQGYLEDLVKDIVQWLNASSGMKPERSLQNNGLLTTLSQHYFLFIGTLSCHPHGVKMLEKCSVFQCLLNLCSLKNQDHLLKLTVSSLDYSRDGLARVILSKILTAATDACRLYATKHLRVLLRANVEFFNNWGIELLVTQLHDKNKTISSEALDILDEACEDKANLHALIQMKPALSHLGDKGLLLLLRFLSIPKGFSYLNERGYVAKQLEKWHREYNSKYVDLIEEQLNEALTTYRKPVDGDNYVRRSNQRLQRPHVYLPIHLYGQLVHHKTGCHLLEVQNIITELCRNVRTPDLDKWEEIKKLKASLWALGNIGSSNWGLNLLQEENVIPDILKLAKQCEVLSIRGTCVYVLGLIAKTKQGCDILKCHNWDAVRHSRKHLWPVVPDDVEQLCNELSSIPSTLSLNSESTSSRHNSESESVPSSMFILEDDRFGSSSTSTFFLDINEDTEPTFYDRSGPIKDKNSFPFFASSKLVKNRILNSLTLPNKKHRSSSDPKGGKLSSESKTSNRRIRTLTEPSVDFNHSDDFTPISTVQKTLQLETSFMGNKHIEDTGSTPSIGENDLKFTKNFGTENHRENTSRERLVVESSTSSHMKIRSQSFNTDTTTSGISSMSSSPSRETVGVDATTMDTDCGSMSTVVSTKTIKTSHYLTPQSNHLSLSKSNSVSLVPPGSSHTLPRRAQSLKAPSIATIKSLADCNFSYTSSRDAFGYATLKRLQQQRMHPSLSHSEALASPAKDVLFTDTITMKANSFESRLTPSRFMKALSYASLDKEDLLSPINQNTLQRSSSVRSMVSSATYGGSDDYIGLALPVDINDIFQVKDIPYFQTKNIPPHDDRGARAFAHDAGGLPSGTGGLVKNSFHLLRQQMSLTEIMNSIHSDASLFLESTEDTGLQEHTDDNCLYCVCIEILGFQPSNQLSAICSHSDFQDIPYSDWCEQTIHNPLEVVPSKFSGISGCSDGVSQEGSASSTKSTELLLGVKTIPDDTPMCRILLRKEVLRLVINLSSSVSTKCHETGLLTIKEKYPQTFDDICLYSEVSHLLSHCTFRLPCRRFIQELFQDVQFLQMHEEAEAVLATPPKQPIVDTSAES

[9] = downregulated phosphorylation, wt MEFs, 20 nM rapamycin + 2 μM Ku-0063794 2 h vs rapamycin alone, insulin 15 min

Cn1cnc2c(F)c(Nc3ccc(Br)cc3Cl)c(C(=O)NOCCO)cc21 [AZD6244]
insulin- or serum-induced Grb10 S501/S503 phosphorylation [1]: no effect
activities of ERK [2]: completely abolished

COc1ccc(-c2ccc3c(N4CCOCC4)nc(N4C[C@@H](C)O[C@@H](C)C4)nc3n2)cc1CO [Ku-0063794]
4EBP T36/T45 phosphorylation (FIG. 6A) (wild-type MEFs; Ku-0063794 screen): completely abolished
intensity of T70 singly phosphorylated 4EBP1 peptide (wild-type MEFs; Ku-0063794 screen): did not change
rpS6 S235/236 phosphorylation (Class I site) (wild-type MEFs; Ku-0063794 screen, rapamycin-inhibited background): not further decreased
Median (treated/ctrl) fold-change of phosphopeptide DRSSS*APNVHINTIEPVNIDDLIR, Braf S312 (wild-type MEFs; [9]): 2.1 fold
Median (treated/ctrl) fold-change of phosphopeptide Eif4ebp1 T36, T45 (wild-type MEFs; [9]): 7.2 fold
Median (treated/ctrl) fold-change of phosphopeptide Eif4ebp2 S65 (wild-type MEFs; [9]): 6.8 fold
Median (treated/ctrl) fold-change of phosphopeptide LGS*FGSITR, Flnc S2234 (wild-type MEFs; [9]): 2.4 fold
Median (treated/ctrl) fold-change of phosphopeptide LNT*SDFQK, Akt1s1 T247 (wild-type MEFs; [9]): 31.3 fold
Median (treated/ctrl) fold-change of phosphopeptide TAS*GSS*VTSLEGTR, Ndrg1 S330, S333 (wild-type MEFs; [9]): 4.1 fold
Median (treated/ctrl) fold-change of phosphopeptide TGS*ESSQTGASATSGR, Eif4b S422 (wild-type MEFs; [9]): 2.2 fold
Median (treated/ctrl) fold-change of phosphopeptide TTS*FAESCKPVQQPSAFGSMK, Gsk3β S9 (wild-type MEFs; [9]): ~2.2 fold
Grb10 S501/S503 phosphorylation (immunoblot) [3]: dose-dependent dephosphorylation
insulin-induced Akt phosphorylation (Akt phosphorylation): inhibits

Cn1c(=O)n(-c2ccc(C(C)(C)C#N)cc2)c2c3cc(-c4cnc5ccccc5c4)ccc3ncc21 [NVP-BEZ235]
Grb10 S501/S503 phosphorylation (immunoblot) [3]: completely abolished
level of Grb10 in TSC1−/− cells [4]: decreased level
Grb10 protein levels after long-term treatment [5]: reduced

CC(C)n1nc(-c2cc3cc(O)ccc3[nH]2)c2c(N)ncnc21 [pp 242]
mTOR S2481 phosphorylation (immunoblot) [6]: completely ablated
Grb10 S501/S503 phosphorylation (immunoblot) [3]: completely abolished
Grb10 protein levels after long-term treatment [5]: reduced

CN[C@@H]1C[C@H]2O[C@@](C)([C@@H]1OC)n1c3ccccc3c3c4c(c5c6ccccc6n2c5c31)C(=O)NC4 [staurosporine]
Grb10 S501/S503 phosphorylation (immunoblot) [3]: No change
rpS6 phosphorylation (S6K activity) [7]: complete loss

CCC(=O)N1CCN(c2ccc(-n3c(=O)ccc4cnc5ccc(-c6cnc7ccccc7c6)cc5c43)cc2C(F)(F)F)CC1 [torin]
Grb10 S501/S503 phosphorylation (immunoblot) [3]: completely abolished
Grb10 protein levels after long-term treatment [5]: reduced

B1: HA-tagged Grb10 (human growth factor receptor-bound protein 10, wild type) (other, UniProt Q13322-3 1-536, looked up)
chain: MNASLESLYSACSMQSDTVPLLQNGQHARSQPRASGPPRSIQPQVSPRQRVQRSQPVHILAVRRLQEEDQQFRTSSLPAIPNPFPELCGPGSPPVLTPGSLPPSQAAAKQDVKVFSEDGTSKVVEILADMTARDLCQLLVYKSHCVDDNSWTLVEHHPHLGLERCLEDHELVVQVESTMASESKFLFRKNYAKYEFFKNPMNFFPEQMVTWCQQSNGSQTQLLQNFLNSSSCPEIQGFLHVKELGKKSWKKLYVCLRRSGLYCSTKGTSKEPRHLQLLADLEDSNIFSLIAGRKQYNAPTDHGLCIKPNKVRNETKELRLLCAEDEQTRTCWMTAFRLLKYGMLLYQNYRIPQQRKALLSPFSTPVRSVSENSLVAMDFSGQTGRVIENPAEAQSAALEEGHAWRKRSTRMNILGSQSPLHPSTLSTVIHRTQHWFHGRISREESHRIIKQQGLVDGLFLLRDSQSNPKAFVLTLCHHQKIKNFQILPCEDDGQTFFSLDDGNTKFSDLIQLVDFYQLNKGVLPCKLKHHCIRVAL
notes: Expressed by transfection in HEK293T cells; The phospho-specific antibody recognises it in the form phosphorylated at S501/S503 (mouse isoform 1 numbering) in cells; also called WT-Grb10; Grb10 WT; not shown: HA tag from vector pKH3
binding result [8]: no binding
